# Assay results reported in patent US12331026B2 (NiKang Therapeutics, Inc., priority 2022, dated 2025).
# Target: T1, CDK2 (Homo sapiens, UniProt P24941)
# T1 construct: endogenous in cells; host or cells: OVCAR3 cells
# Test: Phospho-RB measurement in OVCAR3 cells (HTRF phospho-RB S807/811)
# Assay type: cell-based
# Settings: phosphorylation of RB protein at S807/811, HTRF, 24 h compound treatment, 0.3 to 10,000 nM, read-out: pRb (uM)
# Outline: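 IC50 values come from four-parameter logistic fits of the DMSO-normalised 665/620 nm TR-FRET ratio for phospho-RB (S807/811). Antibody detection ran 4 h at room temperature.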
smiles,measurement,value
"O=S1(=O)C[C@@H]2[C@H](C1)[C@H]2Nc1nccc(-c2sc(N3C4CCC3CC(F)(F)C4)nc2-c2cccc(NS(=O)(=O)c3c(F)cccc3F)c2F)n1 [Example 115, N-(3-(2-(3,3-difluoro-8-azabicyclo[3.2.1]octan-8-yl)-5-(2-(((1R,5S,6r)-3,3-dioxido-3-thiabicyclo[3.1.0]hexan-6-yl)amino)pyrimidin-4-yl)thiazol-4-yl)-2-fluorophenyl)-2,6-difluorobenzenesulfonamide]",IC50,0.05 µM
"O=S1(=O)C[C@@H]2[C@H](C1)[C@H]2Nc1nccc(-c2sc(C34CCC(CC3)CC4)nc2-c2cccc(NS(=O)(=O)c3c(F)cccc3F)c2F)n1 [Example 116, N-(3-(2-(bicyclo[2.2.2]octan-1-yl)-5-(2-(((1R,5S,6r)-3,3-dioxido-3-thiabicyclo[3.1.0]hexan-6-yl)amino)pyrimidin-4-yl)thiazol-4-yl)-2-fluorophenyl)-2,6-difluorobenzenesulfonamide]",IC50,0.09 µM
"CS(=O)(=O)C1CCC(Nc2nccc(-c3sc(C45CC(C(F)(F)F)(C4)C5)nc3-c3cccc(NS(=O)(=O)c4c(Cl)cccc4C(F)(F)F)c3F)n2)CC1 (stereo not shown) [Example 118, 2-chloro-N-(2-fluoro-3-(5-(2-(((1s,4s)-4-(methylsulfonyl)-cyclohexyl)amino)pyrimidin-4-yl)-2-(3-(trifluoromethyl)bicyclo-[1.1.1]pentan-1-yl)thiazol-4-yl)phenyl)-6-(trifluoromethyl)-benzenesulfonamide]",IC50,0.73 µM
"O=S1(=O)C[C@@H]2[C@H](C1)[C@@H]2Nc1nccc(-c2sc(C34CCC(CC3)CC4)nc2-c2cccc(NS(=O)(=O)c3c(F)cccc3F)c2F)n1 [Example 119, N-(3-(2-(bicyclo[2.2.2]octan-1-yl)-5-(2-(((1R,5S,6s)-3,3-dioxido-3-thiabicyclo[3.1.0]hexan-6-yl)amino)pyrimidin-4-yl)thiazol-4-yl)-2-fluorophenyl)-2,6-difluorobenzenesulfonamide]",IC50,1.34 µM
"CC1(C)CCN1c1nc(-c2cccc(NS(=O)(=O)c3c(F)cccc3C(F)(F)F)c2F)c(-c2ccnc(N[C@@H]3[C@@H]4CS(=O)(=O)C[C@@H]43)n2)s1 [Example 120, N-(3-(2-(2,2-dimethylazetidin-1-yl)-5-(2-(((1R,5S,6s)-3,3-dioxido-3-thiabicyclo[3.1.0]hexan-6-yl)amino)pyrimidin-4-yl)thiazol-4-yl)-2-fluorophenyl)-2-fluoro-6-(trifluoromethyl)benzenesulfonamide]",IC50,0.29 µM
"CC1(C)CCN1c1nc(-c2cccc(NS(=O)(=O)c3c(F)cccc3C(F)(F)F)c2F)c(-c2ccnc(N[C@H]3[C@@H]4CS(=O)(=O)C[C@@H]43)n2)s1 [Example 121, N-(3-(2-(2,2-dimethylazetidin-1-yl)-5-(2-(((1R,5S,6r)-3,3-dioxido-3-thiabicyclo[3.1.0]hexan-6-yl)amino)pyrimidin-4-yl)thiazol-4-yl)-2-fluorophenyl)-2-fluoro-6-(trifluoromethyl)benzenesulfonamide]",IC50,0.05 µM
"CN1CC2CCC(C1)N2c1nc(-c2cccc(NS(=O)(=O)c3c(F)cccc3OC(F)F)c2F)c(-c2ccnc(N[C@H]3[C@@H]4CS(=O)(=O)C[C@@H]43)n2)s1 [Example 122, 2-(difluoromethoxy)-N-(3-(5-(2-(((1R,5S,6r)-3,3-dioxido-3-thiabicyclo[3.1.0]hexan-6-yl)amino)pyrimidin-4-yl)-2-(3-methyl-3,8-diazabicyclo[3.2.1]octan-8-yl)thiazol-4-yl)-2-fluorophenyl)-6-fluorobenzenesulfonamide]",IC50,0.04 µM
"O=S1(=O)C[C@@H]2[C@H](C1)[C@H]2Nc1nccc(-c2sc(N3C4CCC3CN(C3CC(F)(F)C3)C4)nc2-c2cccc(NS(=O)(=O)c3c(F)cccc3OC(F)F)c2F)n1 [Example 123, N-(3-(2-(3-(3,3-difluorocyclobutyl)-3,8-diazabicyclo[3.2.1]octan-8-yl)-5-(2-(((1R,5S,6r)-3,3-dioxido-3-thiabicyclo[3.1.0]hexan-6-yl)amino)pyrimidin-4-yl)thiazol-4-yl)-2-fluorophenyl)-2-(difluoromethoxy)-6-fluorobenzenesulfonamide]",IC50,0.17 µM
"C[C@H]1CN(C)C[C@H](C)N1c1nc(-c2cccc(NS(=O)(=O)c3c(F)cccc3C(F)(F)F)c2F)c(-c2ccnc(N[C@H]3[C@@H]4CS(=O)(=O)C[C@@H]43)n2)s1 [Example 124, N-(3-(5-(2-(((1R,5S,6r)-3,3-dioxido-3-thiabicyclo[3.1.0]hexan-6-yl)amino)pyrimidin-4-yl)-2-((2S,6S)-2,4,6-trimethylpiperazin-1-yl)thiazol-4-yl)-2-fluorophenyl)-2-fluoro-6-(trifluoromethyl)benzenesulfonamide]",IC50,0.04 µM
"O=S1(=O)C[C@@H]2[C@H](C1)[C@H]2Nc1nccc(-c2sc(C34CC(C3)C4)nc2-c2cccc(NS(=O)(=O)c3c(OC(F)F)cccc3C(F)(F)F)c2F)n1 [Example 125, N-(3-(2-(bicyclo[1.1.1]pentan-1-yl)-5-(2-(((1R,5S,6r)-3,3-dioxido-3-thiabicyclo[3.1.0]hexan-6-yl)amino)pyrimidin-4-yl)thiazol-4-yl)-2-fluorophenyl)-2-(difluoromethoxy)-6-(trifluoromethyl)-benzenesulfonamide]",IC50,4.51 µM
"O=S1(=O)C[C@@H]2[C@H](C1)[C@H]2Nc1nccc(-c2sc(N3C4CCC3CN(C3CC3)C4)nc2-c2cccc(NS(=O)(=O)c3c(F)cccc3F)c2F)n1 [Example 127, N-(3-(2-(3-cyclopropyl-3,8-diazabicyclo[3.2.1]octan-8-yl)-5-(2-(((1R,5S,6r)-3,3-dioxido-3-thiabicyclo[3.1.0]hexan-6-yl)amino)-pyrimidin-4-yl)thiazol-4-yl)-2-fluorophenyl)-2,6-difluorobenzene-sulfonamide]",IC50,0.06 µM
"O=S1(=O)C[C@@H]2[C@H](C1)[C@H]2Nc1nccc(-c2sc(C3(C(F)F)CC3)nc2-c2cccc(NS(=O)(=O)c3c(F)cccc3C(F)(F)F)c2F)n1 [Example 128, N-(3-(2-(1-(difluoromethyl)cyclopropyl)-5-(2-(((1R,5S,6r)-3,3-dioxido-3-thiabicyclo[3.1.0]hexan-6-yl)amino)pyrimidin-4-yl)thiazol-4-yl)-2-fluorophenyl)-2-fluoro-6-(trifluoromethyl)-benzenesulfonamide]",IC50,0.05 µM
"O=S1(=O)C[C@@H]2[C@H](C1)[C@H]2Nc1nccc(-c2sc(C3(C(F)F)CC3)nc2-c2cccc(NS(=O)(=O)c3c(F)cccc3OC(F)F)c2F)n1 [Example 129, 2-(difluoromethoxy)-N-(3-(2-(1-(difluoromethyl)cyclopropyl)-5-(2-(((1R,5S,6r)-3,3-dioxido-3-thiabicyclo[3.1.0]hexan-6-yl)amino)-pyrimidin-4-yl)thiazol-4-yl)-2-fluorophenyl)-6-fluorobenzene-sulfonamide]",IC50,0.09 µM
"O=S1(=O)C[C@@H]2[C@H](C1)[C@H]2Nc1nccc(-c2sc(N3C4CCC3CN(C3CC3)C4)nc2-c2cccc(NS(=O)(=O)c3c(F)cccc3C(F)(F)F)c2F)n1 [Example 130, N-(3-(2-(3-cyclopropyl-3,8-diazabicyclo[3.2.1]octan-8-yl)-5-(2-(((1R,5S,6r)-3,3-dioxido-3-thiabicyclo[3.1.0]hexan-6-yl)amino)-pyrimidin-4-yl)thiazol-4-yl)-2-fluorophenyl)-2-fluoro-6-(trifluoromethyl)benzenesulfonamide]",IC50,0.45 µM
"O=S1(=O)C[C@@H]2[C@H](C1)[C@H]2Nc1nccc(-c2sc(N3C4CCC3CN(C3CCC3)C4)nc2-c2cccc(NS(=O)(=O)c3c(F)cccc3C(F)(F)F)c2F)n1 [Example 131, N-(3-(2-(3-cyclobutyl-3,8-diazabicyclo[3.2.1]octan-8-yl)-5-(2-(((1R,5S,6r)-3,3-dioxido-3-thiabicyclo[3.1.0]hexan-6-yl)amino)-pyrimidin-4-yl)thiazol-4-yl)-2-fluorophenyl)-2-fluoro-6-(trifluoromethyl)benzenesulfonamide]",IC50,0.12 µM
"CS(=O)(=O)[C@H]1CC[C@@H](Nc2nccc(-c3sc(C45CC(C4)C5)nc3-c3cccc(NS(=O)(=O)c4c(F)cccc4C(F)(F)F)c3F)n2)CC1 [Example 132, N-(3-(2-(bicyclo[1.1.1]pentan-1-yl)-5-(2-(((1s,4s)-4-(methylsulfonyl)cyclohexyl)amino)pyrimidin-4-yl)thiazol-4-yl)-2-fluorophenyl)-2-fluoro-6-(trifluoromethyl)benzenesulfonamide]",IC50,0.05 µM
"CS(=O)(=O)[C@H]1CC[C@H](Nc2nccc(-c3sc(C4(C(F)(F)F)CC4)nc3-c3cccc(NS(=O)(=O)c4c(Cl)cccc4C(F)(F)F)c3F)n2)CC1 [Example 133, 2-chloro-N-(2-fluoro-3-(5-(2-(((1r,4r)-4-(methylsulfonyl)-cyclohexyl)amino)pyrimidin-4-yl)-2-(1-(trifluoromethyl)-cyclopropyl)thiazol-4-yl)phenyl)-6-(trifluoromethyl)benzene-sulfonamide]",IC50,0.12 µM
"CS(=O)(=O)[C@H]1CC[C@H](Nc2nccc(-c3sc(C45CC(C(F)F)(C4)C5)nc3-c3cccc(NS(=O)(=O)c4c(F)cccc4C(F)(F)F)c3F)n2)CC1 [Example 134, N-(3-(2-(3-(difluoromethyl)bicyclo[1.1.1]pentan-1-yl)-5-(2-(((1r,4r)-4-(methylsulfonyl)cyclohexyl)amino)pyrimidin-4-yl)thiazol-4-yl)-2-fluorophenyl)-2-fluoro-6-(trifluoromethyl)benzenesulfonamide]",IC50,0.08 µM
"CN1CC2CCC(C1)N2c1nc(-c2cccc(NS(=O)(=O)c3c(F)cccc3F)c2F)c(-c2ccnc(NC3CC4(C3)CS(=O)(=O)C4)n2)s1 [Example 135, N-(3-(5-(2-((2,2-dioxido-2-thiaspiro[3.3]heptan-6-yl)amino)-pyrimidin-4-yl)-2-(3-methyl-3,8-diazabicyclo[3.2.1]octan-8-yl)thiazol-4-yl)-2-fluorophenyl)-2,6-difluorobenzenesulfonamide]",IC50,0.07 µM
